Source: patent US20250255298A1, “PENETRATION PROMOTER” (IBIDEN CO., LTD., priority 2023, published 2025)

Tested on: Rice (variety: Nipponbare) leaves
Test: Test on penetrability in rice (cut leaves soaked in test penetrant, LC-MS/MS of leaf extract)
Settings: penetration promoter solutions of Examples 1 and 2
Procedure: (§1) A solution obtained by adding 40 μL (20 mg) of pine oil (manufactured by ease Inc.) to 2000 mL of each of the penetration promoter solutions 1 to 8 was used as a terpene test penetrant.
(§2) A liquid obtained by dissolving 450 mg of ground nucleic acid particles (manufactured by Kenkououendan Inc.) in 2000 mL of each of the penetration promoter solutions 1 to 8 was used as a nucleic acid test penetrant.
A liquid obtained by dispersing 100 mg of soybean-derived lecithin (manufactured by FUJIFILM Wako Pure Chemical Corporation) in 2000 mL of each of the penetration promoter solutions 1 to 8 was used as a phospholipid test penetrant. • Penetrability test of each organic substance using test penetrant […]
(§3) The analysis sample was analyzed for the amount of terpene using an LC-MS/MS apparatus (LC part: DIONEX Ultimate3000, MS/MS part: Q Exactive Focus: manufactured by Thermo Fisher Scientific K.K.) under the following conditions. […] Quantification was performed from the MS-peak area value of α-pinene contained in pine oil (manufactured by ease Inc.), and the amounts of terpene penetrated into the intralobar tissue by the penetration promoter solutions 1 to 8 (Examples 1 and 2 and Comparative Examples 1 to 6) were compared. […]

Structure (SMILES) | penetrability with oleic acid as compared with terpene
CCCCCCCC/C=C\CCCCCCCC(=O)O [oleic acid] | slightly decreased

Tested on: not given
Test: not given
Settings: indicated as common logarithmic value Log Kow or Log P; cited from earlier work

Structure (SMILES) | octanol/water partition coefficient
Nc1ncnc2nc[nH]c12 [adenine] | −0.1
Nc1ncnc2c1ncn2[C@@H]1O[C@H](COP(=O)(O)O)[C@@H](O)[C@H]1O [adenosine monophosphate] | −3.1
Nc1ncnc2c1ncn2[C@@H]1O[C@H](CO)[C@@H](O)[C@H]1O [adenosine] | −1.2
C[C@H](N)C(=O)O [alanine] | −2.85
N[C@@H](CS)C(=O)O [cysteine] | −2.49
Nc1cc[nH]c(=O)n1 [cytosine] | −1.73
N[C@@H](CCC(=O)O)C(=O)O [glutamic acid] | −3.69
NC(=O)CC[C@H](N)C(=O)O [glutamine] | −3.64
Nc1nc2nc[nH]c2c(=O)[nH]1 [guanine] | −0.91
Nc1nc2c(ncn2[C@@H]2O[C@H](CO)[C@@H](O)[C@H]2O)c(=O)[nH]1 [guanosine] | −1.9
N[C@@H](Cc1c[nH]cn1)C(=O)O [histidine] | −3.32
CC[C@H](C)[C@H](N)C(=O)O [isoleucine] | −1.70
CC(C)C[C@H](N)C(=O)O [leucine] | −1.52
NCCCC[C@H](N)C(=O)O [lysine] | −3.05
CSCC[C@H](N)C(=O)O [methionine] | −1.87
CCCCCCCC/C=C\CCCCCCCC(=O)O [oleic acid] | 7.73
N[C@@H](Cc1ccccc1)C(=O)O [phenylalanine] | −1.38
O=C(O)[C@@H]1CCCN1 [proline] | −2.54
N[C@@H](CO)C(=O)O [serine] | −3.07
Cc1cn([C@H]2C[C@H](O)[C@@H](COP(=O)(O)O)O2)c(=O)[nH]c1=O [thymidine monophosphate] | −2.8
Cc1cn([C@H]2C[C@H](O)[C@@H](CO)O2)c(=O)[nH]c1=O [thymidine] | −0.93
Cc1c[nH]c(=O)[nH]c1=O [thymine] | −0.62
N[C@@H](Cc1c[nH]c2ccccc12)C(=O)O [tryptophan] | −1.05
O=c1ccn([C@@H]2O[C@H](CO)[C@@H](O)[C@H]2O)c(=O)[nH]1 [uridine] | −1.98
CC(C)[C@H](N)C(=O)O [valine] | −2.26

Tested on: soybean (variety: Fukuyutaka) leaves
Test: Test on penetrability in soybean (absorbent cotton with test penetrant on leaf, LC-MS/MS of leaf extract)
Settings: penetration promoter solutions of Examples 1 and 2
Procedure: as §1, §2
A liquid obtained by dispersing 100 mg of soybean-derived lecithin (manufactured by FUJIFILM Wako Pure Chemical Corporation) in 2000 mL of each of the penetration promoter solutions 1 to 8 was used as a phospholipid test penetrant. • Penetrability test of each organic substance using test penetrant
Four soybean (variety: Fukuyutaka) seeds were seeded, per pot, in a No. 3 pot containing Seeding Soil for Vegetables and Flowers (manufactured by Takii Co., Ltd.). […]
as §3

Structure (SMILES) | penetrability with oleic acid as compared with terpene
CCCCCCCC/C=C\CCCCCCCC(=O)O [oleic acid] | slightly decreased
